# Molecular target: T1, Mpr1 (Cryptococcus neoformans, UniProt J9VXZ9)
# T1 construct: gene CNAG_04735; recombinant His-tagged Mpr1 secreted from Pichia pastoris expressing CnMPR1-HIS cDNA
# Assay: FITC-casein proteolysis assay with purified recombinant Mpr1-His
# Assay type: biochemical
# T1 sequence (J9VXZ9 entry or part of it): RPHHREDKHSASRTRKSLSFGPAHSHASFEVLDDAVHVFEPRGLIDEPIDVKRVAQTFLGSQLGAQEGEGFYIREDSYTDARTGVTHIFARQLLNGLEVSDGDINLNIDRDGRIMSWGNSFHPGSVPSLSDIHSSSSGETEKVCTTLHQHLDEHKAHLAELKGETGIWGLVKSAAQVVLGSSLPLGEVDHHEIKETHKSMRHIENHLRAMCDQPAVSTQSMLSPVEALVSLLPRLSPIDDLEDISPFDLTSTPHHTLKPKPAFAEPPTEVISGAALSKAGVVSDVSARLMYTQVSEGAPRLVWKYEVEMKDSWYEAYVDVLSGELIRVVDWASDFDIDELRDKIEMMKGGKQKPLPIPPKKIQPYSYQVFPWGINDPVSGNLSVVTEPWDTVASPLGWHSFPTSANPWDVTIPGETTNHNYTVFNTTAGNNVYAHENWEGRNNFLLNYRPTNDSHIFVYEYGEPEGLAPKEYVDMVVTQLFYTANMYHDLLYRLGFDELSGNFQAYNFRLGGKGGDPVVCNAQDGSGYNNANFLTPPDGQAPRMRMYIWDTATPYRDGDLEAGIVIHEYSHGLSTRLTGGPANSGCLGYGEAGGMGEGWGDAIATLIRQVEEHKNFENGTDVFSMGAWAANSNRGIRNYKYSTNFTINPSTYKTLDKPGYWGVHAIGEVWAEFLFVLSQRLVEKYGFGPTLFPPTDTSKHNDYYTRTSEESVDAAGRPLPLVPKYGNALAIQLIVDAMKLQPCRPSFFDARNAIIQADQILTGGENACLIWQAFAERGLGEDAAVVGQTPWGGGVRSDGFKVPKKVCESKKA
row,SMILES,IC50
1,"C[C@@H]1CC[C@@]2(OC1)O[C@H]1C[C@H]3[C@@H]4CC=C5C[C@@H](O)CC[C@]5(C)[C@H]4CC[C@]3(C)[C@H]1[C@@H]2C [NP002-1D9, diosgenin]",5.03 µM
2,"CC(C)C1=CC2=CC[C@@H]3[C@](C)(CCC[C@@]3(C)C(=O)O)[C@H]2CC1 [NP001-1C11, abietic acid]",5.14 µM
3,"OC[C@@H]1CCCN2CCCC[C@H]12 [NP003-2B11, lupinine]",9.66 µM
